Measured values published in patent US20210269411A1, “COMFREYNS, ARYLNAPHTHALENE LIGNANS THAT INHIBIT PRO-INFLAMMATORY GENE EXPRESSION, AND PHARMACEUTIC COMPOSITION COMPRISING THEM” (The Procter & Gamble Company, priority 2020, published 2021).
Values joined by “and” are separate entries in the source; they are usually repeats but may differ in a detail not shown here. Equal entries are not always repeated.

System: IL-1β induced E-selectin expression
Test: Inhibition of IL-1β induced E-selectin (SELE) mRNA expression in primary HUVEC, real time PCR
Type: cell-based, human
Details: for Inhibitory activity against E-selectin expression (in words): IL-1β stimulated HUVEC, 5 ng/mL IL-1β for 90 min; for EC [μM] (effective concentration) / Max. Inhibition (%): HUVEC pre-incubated 30 min with compound, then 5 ng/mL IL-1β for 90 min; for EC [μM] (effective concentration): SELE mRNA normalized to GAPDH, at least three independent experiments; for Max. Inhibition (%): SELE mRNA by qPCR, at the effective concentration
Protocol: J. Seigner et al. (Frontiers in Pharmacology 10.3389/fphar.2019.00289) reported recently that interleukin-1β (IL-1β) induced E-selectin mRNA levels were inhibited by a comfrey extract by approximately 70% at the starting concentration of 20 μg/ml. E-selectin is a NF-κB-dependent target gene and IL-1β is a well-described pro-inflammatory mediator that exerts an important role in the regulation of immune and inflammatory responses, in particular those involving sterile insults such as trauma and blunt injuries. […] Thus, the anti-inflammatory activity of individual compounds 1, 5, 12 and 14, was tested using IL-1-stimulated HUVEC cells and analyzed by real time PCR determining the fold change in mRNA expression of E-selectin. These were compared to the inhibitory activity of the new arylnaphthalene lignan comfreyn A (15) and globoidnan B (8), malaxinic acid (9) and caffeic acid ethyl ester (16), the latter three identified first time in S. officinale as disclosed herein.
Therefore, primary HUVEC cells were isolated from umbilical cords as described by M. Hoeth et al., Guidance Molecules in Human Endothelial Cells, Plos One 7, 2012 and maintained in M199 medium (Lonza) supplemented with 20% FCS (Sigma), 2 mM L-glutamine (Sigma), penicillin (100 units/mL), streptomycin ([…]), 5 units/mL heparin, and […] ECGS (Promocell), and were used up to passage 5. HUVEC cell were pre-incubated with various concentration of purified compounds (1, 5, 8, 9, 12, 14, 15 and 16) for 30 minutes following stimulation with 5 ng/mL IL-1β (R&D Systems) for 90 min. Cells were then analyzed for the change in mRNA expression of E-Selectin (SELE). Therefore, total RNA was isolated using the PeqGold Total RNA Isolation Kit (VWR International) according to the manufacturer's instructions. 1 μg RNA was reverse transcribed using random hexamers (Fermentas) and murine leukemia virus reverse transcriptase (Thermo Scientific Fisher). Primers were designed using the software “Primer3”. Following primer sequences were used for qPCR: glyceraldehyde 3-phosphate dehydrogenase (GAPDH) forward, 5′-AGAAGGCTGGGGCTCATTT-3′ and reverse, 5′-[…]-3′; E-Selectin (SELE) forward, 5′-CCTGTGAAGCTCCCACTGA-3 and reverse 5′-[…]-3′. Real-time PCR was done with the SsoAdvanced Universal SYBR Green Supermix (BioRad) using the StepOnePlus instrument (Applied Biosystems), and relative mRNA expression normalized to GAPDH. Fold changes in mRNA expression were calculated according to the 2-ΔΔCT method.

Structure (SMILES): NC(=O)NC1NC(=O)NC1=O (stereo not shown) [Compound 1, allantoin]
- Inhibitory activity against E-selectin expression (in words): do not show any inhibitor activity

Structure (SMILES): O=Cc1ccc(O)c(O)c1 [Compound 5, protocatechuic aldehyde]
- EC [μM] (effective concentration): 120 µM

Structure (SMILES): O=C(O[C@H](Cc1ccc(O)c(O)c1)C(=O)O)C1=Cc2cc(O)c(O)cc2[C@H](c2ccc(O)c(O)c2)[C@H]1C(=O)O [Compound 8, globoidnan B]
- Inhibitory activity against E-selectin expression (in words): did not show any inhibitory activity

Structure (SMILES): CC(C)=CCc1cc(C(=O)O)ccc1O[C@@H]1O[C@H](CO)[C@@H](O)C(O)[C@H]1O (stereo partly shown) [Compound 9, malaxinic acid]
- EC [μM] (effective concentration): 108 µM

Structure (SMILES): O=C(/C=C/c1ccc(O)c(O)c1)O[C@H](Cc1ccc(O)c(O)c1)C(=O)O [Compound 12, rosmarinic acid]
- Inhibitory activity against E-selectin expression (in words): do not show any inhibitor activity

Structure (SMILES): O=C(O[C@H](Cc1ccc(O)c(O)c1)C(=O)O)c1cc(-c2ccc(O)c(O)c2)c2cc(O)c(O)cc2c1 [Compound 14, globoidnan A]
- Max. Inhibition (%): 35%
- EC [μM] (effective concentration): 40 µM

Structure (SMILES): CCOC(=O)c1cc2cc(O)c(O)cc2c2c1c(=O)oc1cc(O)c(O)cc12 [Compound 15, comfreyn A]
- Max. Inhibition (%): 50% and 52%
- EC [μM] (effective concentration): 50 µM
- Inhibitory activity against E-selectin expression (in words) (listed as Comfreyn A): inhibition of E-selectin expression
- Inhibitory activity against E-selectin expression (in words) (listed as comfreyn A): inhibit the expression of E-selecting mRNA

Structure (SMILES): CCOC(=O)/C=C/c1ccc(O)c(O)c1 [Compound 16, caffeic acid ethyl ester]
- Max. Inhibition (%): 70%
- EC [μM] (effective concentration): 64 µM
